In US20100179093A1, “Neoropeptide-2-Receptor (Y-2R) Agonists” (priority 2008, published 2010):
Read-outs that look alike come from different tables or passages of the source.

What was measured:
Assay type in all cases: cell-based
hNPY2R [1] = target: T1, hNPY2R (Homo sapiens, UniProt P49146); assay: CaFlux Assay (FLIPR), Y2R; design: expressed in transfected cells; host or cells: HEK-293 stably expressing G protein chimera Gaqi9
T1 sequence (P49146 1-381): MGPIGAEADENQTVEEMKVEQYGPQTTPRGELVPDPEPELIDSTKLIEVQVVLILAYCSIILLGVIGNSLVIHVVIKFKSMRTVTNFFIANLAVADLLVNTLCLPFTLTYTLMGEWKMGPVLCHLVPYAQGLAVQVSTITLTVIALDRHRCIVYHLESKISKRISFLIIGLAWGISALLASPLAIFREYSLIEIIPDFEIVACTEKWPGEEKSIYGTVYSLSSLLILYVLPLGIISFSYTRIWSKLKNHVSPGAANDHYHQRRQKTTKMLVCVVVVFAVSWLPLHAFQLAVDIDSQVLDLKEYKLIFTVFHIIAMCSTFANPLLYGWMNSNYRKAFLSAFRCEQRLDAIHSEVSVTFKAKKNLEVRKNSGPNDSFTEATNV

Y1R = target: T2, Y1R (Homo sapiens, UniProt P25929); assay: CaFlux Assay (FLIPR), Y1R
T2 sequence (P25929 1-384): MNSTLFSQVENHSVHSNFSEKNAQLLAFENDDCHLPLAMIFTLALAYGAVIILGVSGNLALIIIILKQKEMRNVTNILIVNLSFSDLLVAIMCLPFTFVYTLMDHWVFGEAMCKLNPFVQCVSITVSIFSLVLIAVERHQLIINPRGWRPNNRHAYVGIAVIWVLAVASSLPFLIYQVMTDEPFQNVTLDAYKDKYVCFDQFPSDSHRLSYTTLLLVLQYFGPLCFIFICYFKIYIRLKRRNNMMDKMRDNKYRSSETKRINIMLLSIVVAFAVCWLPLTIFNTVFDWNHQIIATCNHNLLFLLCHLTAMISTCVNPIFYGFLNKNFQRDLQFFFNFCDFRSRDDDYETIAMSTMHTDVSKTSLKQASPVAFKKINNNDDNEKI

hNPY2R [2] = target: T1, hNPY2R; assay: cAMP Agonist Assay, HEK293/hNPY2R cells; design: expressed in transfected cells; host or cells: HEK293/hNPY2R (G418 selection)
Description: On the first day, medium was discarded, and the monolayer cells were washed with 10 mL PBS per flask (T225). […] The flask was gently tapped and the cell suspension was pooled. Each flask was rinsed with 10 mL plating medium and centrifuged at 1000 rpm for 5 min. The suspension was pooled and counted. The suspension was resuspended in plating medium at a density of 2.0×10^5 cells/mL for HEK293/hNPY2R. 50 microliters of cells (HEK293/hNPY2R-10,000 cells/well) were transferred into the 384-well plate using Multi-drop dispenser. The plates were incubated at 37° C. overnight. […] The media and reagents were allowed to come to room temperature. Before the dilutions were prepared, the stock solution of stimulating compound in dimethyl sulphoxide (DMSO, Sigma, cat #D2650) was allowed to warm up to 32 C for 5-10 min. […] The cell medium was tapped off with a gentle inversion of the cell plate on a paper towel. 50 μL of stimulation medium was placed per well (each concentration done in four replicates). The plates were incubated at room temperature for 30 min, and the cells were checked under a microscope for toxicity. After 30 minutes of treatment, the stimulation media was discarded and 50 mL/well of Assay Lysis Buffer (provided in the Tropix kit) was added. The plates were incubated for 45 min@37° C. 20 μL of the lysate was transferred from stimulation plates into the pre-coated antibody plates (384-well) from the Tropix kit. 10 μL of AP conjugate and 20 μL of anti-cAMP antibody was added. The plates were incubated at room temperature while shaking for 1 hour. The plates were then washed 5 times with Wash Buffer, 70 μL per well for each wash. The plates were tapped to dry. 30 μL/well of CSPD/Saphire-II RTU substrate/enhancer solution was added and incubated for 45 min @ RT (shake). Signal for 1 sec/well in a Luminometer.

Y4R = Y4R (Homo sapiens, UniProt P50391); assay: CaFlux Assay (FLIPR), Y4R
Y5R = target: T3, Y5R (Homo sapiens, UniProt Q15761); assay: CaFlux Assay (FLIPR), Y5R; conditions: for Emax: read-out: Y5R FLIPR, percentage in parentheses under the EC50;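 for Emax: percent of the maximal response of the positive control agonist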
T3 sequence (Q15761 1-445): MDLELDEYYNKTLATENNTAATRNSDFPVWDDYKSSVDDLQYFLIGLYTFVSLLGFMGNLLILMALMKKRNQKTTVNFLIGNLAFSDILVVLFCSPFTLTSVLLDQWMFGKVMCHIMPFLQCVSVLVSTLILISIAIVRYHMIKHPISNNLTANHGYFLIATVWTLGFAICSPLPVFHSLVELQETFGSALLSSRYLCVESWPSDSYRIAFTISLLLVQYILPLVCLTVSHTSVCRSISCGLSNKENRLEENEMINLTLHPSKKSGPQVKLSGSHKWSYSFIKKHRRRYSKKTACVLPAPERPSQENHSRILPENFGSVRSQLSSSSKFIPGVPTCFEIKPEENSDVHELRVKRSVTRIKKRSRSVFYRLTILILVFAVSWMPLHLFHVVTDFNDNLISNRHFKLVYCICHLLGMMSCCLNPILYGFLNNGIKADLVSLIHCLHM

Sequence of Y4R (P50391 whole entry): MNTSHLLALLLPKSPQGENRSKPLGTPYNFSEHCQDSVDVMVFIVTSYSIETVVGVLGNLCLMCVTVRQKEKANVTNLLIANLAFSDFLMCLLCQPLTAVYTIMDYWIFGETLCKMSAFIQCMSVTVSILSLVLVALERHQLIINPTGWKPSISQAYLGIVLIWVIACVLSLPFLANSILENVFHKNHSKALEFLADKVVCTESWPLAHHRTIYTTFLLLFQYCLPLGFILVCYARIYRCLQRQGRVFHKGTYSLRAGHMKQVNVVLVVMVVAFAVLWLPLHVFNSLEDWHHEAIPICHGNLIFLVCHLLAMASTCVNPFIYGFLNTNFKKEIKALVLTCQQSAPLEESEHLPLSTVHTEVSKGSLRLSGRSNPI

Compound | EC50 (hNPY2R [1]) [nM] | EC50 (Y1R) [nM] | EC50 (hNPY2R [2]) [nM] | EC50 (Y4R) [nM] | EC50 (Y5R) [nM] | Emax (Y5R) [%] | EC50 (hNPY2R [1]; FLIPR calcium flux, Hek-293 cells with Gaqi9 and human NPY2 receptor, read-out: Y2R EC50 (nM) FLIRR) [nM] | EC50 (Y1R; FLIPR, read-out: Y1R EC50 (nM) FLIPR) [nM] | EC50 (hNPY2R [2]; HEK293/hNPY2R, Forskolin 5 μM, read-out: Y2R EC50 (nM) cAMP) [nM] | EC50 (Y4R; FLIPR, read-out: Y4R EC50 (nM) FLIPR) [nM] | EC50 (Y5R; FLIPR, read-out: Y5R EC50 (nM) FLIPR) [nM]
CCCCCCCCCCCCCCCC(=O)NCCCC[C@H](NC(=O)[C@@H](N)[C@@H](C)CC)C(=O)N1CCN(c2ccc3ncn(CC(=O)N[C@@H](CCCNC(=N)N)C(=O)N[C@@H](Cc4c[nH]cn4)C(=O)N[C@@H](Cc4ccc(O)cc4)C(=O)N[C@@H](CC(C)C)C(=O)N[C@@H](CC(N)=O)C(=O)N[C@@H](Cc4c[nH]c5ccccc45)C(=O)N[C@H](C(=O)N[C@H](C(=O)N[C@@H](CCCNC(=N)N)C(=O)N[C@@H](CCC(N)=O)C(=O)N(C)[C@@H](CCCNC(=N)N)C(=O)N[C@@H](Cc4ccc(O)cc4)C(N)=O)[C@@H](C)O)C(C)C)c(=O)c3c2)CC1 [Example 14] | 0.73 | > 5000 | 1 | > 5000 | 12700 |  |  |  |  |  | 
CCCCCCCCCCCCCCCC(=O)N[C@@H](CCC(=O)NCCCC[C@H](NC(=O)[C@@H](N)[C@@H](C)CC)C(=O)N1CCN(c2ccc3ncn(CC(=O)N[C@@H](CCCNC(=N)N)C(=O)N[C@@H](Cc4c[nH]cn4)C(=O)N[C@@H](Cc4ccc(O)cc4)C(=O)N[C@@H](CC(C)C)C(=O)N[C@@H](CC(N)=O)C(=O)N[C@@H](Cc4c[nH]c5ccccc45)C(=O)N[C@H](C(=O)N[C@H](C(=O)N[C@@H](CCCNC(=N)N)C(=O)N[C@@H](CCC(N)=O)C(=O)N(C)[C@@H](CCCNC(=N)N)C(=O)N[C@@H](Cc4ccc(O)cc4)C(N)=O)[C@@H](C)O)C(C)C)c(=O)c3c2)CC1)C(=O)O [Example 24] | 0.039 | > 5000 | 0.21 | > 5000 | 168 | 70 |  |  |  |  | 
CCCCCCCCCCCC(=O)NCCCCCC(=O)NCCCC[C@H](NC(=O)[C@@H](N)[C@@H](C)CC)C(=O)N1CCN(c2ccc3ncn(CC(=O)N[C@@H](CCCNC(=N)N)C(=O)N[C@@H](Cc4c[nH]cn4)C(=O)N[C@@H](Cc4ccc(O)cc4)C(=O)N[C@@H](CC(C)C)C(=O)N[C@@H](CC(N)=O)C(=O)N[C@@H](Cc4c[nH]c5ccccc45)C(=O)N[C@H](C(=O)N[C@H](C(=O)N[C@@H](CCCNC(=N)N)C(=O)N[C@@H](CCC(N)=O)C(=O)N(C)[C@@H](CCCNC(=N)N)C(=O)N[C@@H](Cc4ccc(O)cc4)C(N)=O)[C@@H](C)O)C(C)C)c(=O)c3c2)CC1 [Example 9] | 0.031 | > 5000 | 3.5 | 2450 | 3790 |  |  |  |  |  | 
CCCCCCCCCCCCCCCC(=O)N[C@@H](CCC(=O)O)C(=O)N[C@@H](CCC(=O)O)C(=O)NCCCC[C@H](NC(=O)[C@@H](N)[C@@H](C)CC)C(=O)N1CCN(c2ccc3ncn(CC(=O)N[C@@H](CCCNC(=N)N)C(=O)N[C@@H](Cc4c[nH]cn4)C(=O)N[C@@H](Cc4ccc(O)cc4)C(=O)N[C@@H](CC(C)C)C(=O)N[C@@H](CC(N)=O)C(=O)N[C@@H](Cc4c[nH]c5ccccc45)C(=O)N[C@H](C(=O)N[C@H](C(=O)N[C@@H](CCCNC(=N)N)C(=O)N[C@@H](CCC(N)=O)C(=O)N(C)[C@@H](CCCNC(=N)N)C(=O)N[C@@H](Cc4ccc(O)cc4)C(N)=O)[C@@H](C)O)C(C)C)c(=O)c3c2)CC1 [Example 23] |  |  |  |  |  | 70 | 0.033 | > 5000 | 0.29 | > 5000 | 459
CCCCCCCCCCCCCCCC(=O)NCCCCCC(=O)N[C@H](C(=O)N[C@@H](CCCCN)C(=O)N1CCN(c2ccc3ncn(CC(=O)N[C@@H](CCCNC(=N)N)C(=O)N[C@@H](Cc4c[nH]cn4)C(=O)N[C@@H](Cc4ccc(O)cc4)C(=O)N[C@@H](CC(C)C)C(=O)N[C@@H](CC(N)=O)C(=O)N[C@@H](Cc4c[nH]c5ccccc45)C(=O)N[C@H](C(=O)N[C@H](C(=O)N[C@@H](CCCNC(=N)N)C(=O)N[C@@H](CCC(N)=O)C(=O)N(C)[C@@H](CCCNC(=N)N)C(=O)N[C@@H](Cc4ccc(O)cc4)C(N)=O)[C@@H](C)O)C(C)C)c(=O)c3c2)CC1)[C@@H](C)CC [Example 16] | 0.18 | > 5000 | 0.23 | 13700 | 544 |  |  |  |  |  | 
CCCCCCCCCCCCCCCC(=O)N[C@@H](CCC(=O)N[C@@H](CCC(=O)NCCCC[C@H](NC(=O)[C@@H](NC(=O)[C@@H]1CCC(=O)N1)[C@@H](C)CC)C(=O)N1CCN(c2ccc3ncn(CC(=O)N[C@@H](CCCNC(=N)N)C(=O)N[C@@H](Cc4c[nH]cn4)C(=O)N[C@@H](Cc4ccc(O)cc4)C(=O)N[C@@H](CC(C)C)C(=O)N[C@@H](CC(N)=O)C(=O)N[C@@H](Cc4c[nH]c5ccccc45)C(=O)N[C@H](C(=O)N[C@H](C(=O)N[C@@H](CCCNC(=N)N)C(=O)N[C@@H](CCC(N)=O)C(=O)N(C)[C@@H](CCCNC(=N)N)C(=O)N[C@@H](Cc4ccc(O)cc4)C(N)=O)[C@@H](C)O)C(C)C)c(=O)c3c2)CC1)C(=O)O)C(=O)O [Example 28] | 0.176 | > 5000 | 0.21 | > 5000 | 2060 |  |  |  |  |  | 
CCCCCCCCCCCCCCCC(=O)NCCCCCC(=O)NCCCC[C@H](NC(=O)[C@@H](N)[C@@H](C)CC)C(=O)N1CCN(c2ccc3ncn(CC(=O)N[C@@H](CCCNC(=N)N)C(=O)N[C@@H](Cc4c[nH]cn4)C(=O)N[C@@H](Cc4ccc(O)cc4)C(=O)N[C@@H](CC(C)C)C(=O)N[C@@H](CC(N)=O)C(=O)N[C@@H](Cc4c[nH]c5ccccc45)C(=O)N[C@H](C(=O)N[C@H](C(=O)N[C@@H](CCCNC(=N)N)C(=O)N[C@@H](CCC(N)=O)C(=O)N[C@@H](CCCNC(=N)N)C(=O)N[C@@H](Cc4ccc(O)cc4)C(N)=O)[C@@H](C)O)C(C)C)c(=O)c3c2)CC1 [Example 19] | 0.004 | > 5000 | 0.15 | > 5000 | 45 |  |  |  |  |  | 
CCCCCCCCCCCCCCCC(=O)N[C@@H](CO)C(=O)N[C@@H](CO)C(=O)NCCCC[C@H](NC(=O)[C@@H](N)[C@@H](C)CC)C(=O)N1CCN(c2ccc3ncn(CC(=O)N[C@@H](CCCNC(=N)N)C(=O)N[C@@H](Cc4c[nH]cn4)C(=O)N[C@@H](Cc4ccc(O)cc4)C(=O)N[C@@H](CC(C)C)C(=O)N[C@@H](CC(N)=O)C(=O)N[C@@H](Cc4c[nH]c5ccccc45)C(=O)N[C@H](C(=O)N[C@H](C(=O)N[C@@H](CCCNC(=N)N)C(=O)N[C@@H](CCC(N)=O)C(=O)N(C)[C@@H](CCCNC(=N)N)C(=O)N[C@@H](Cc4ccc(O)cc4)C(N)=O)[C@@H](C)O)C(C)C)c(=O)c3c2)CC1 [Example 40] | 0.36 | > 5000 | 0.18 | > 5000 | 602 | 85 |  |  |  |  | 
CCCCCCCCCCCCCCCC(=O)NCCCCCC(=O)NCCCC[C@H](NC(=O)[C@@H](N)[C@@H](C)CC)C(=O)N1CCN(c2ccc3ncn(CC(=O)N[C@@H](CCCNC(=N)N)C(=O)N[C@@H](Cc4c[nH]cn4)C(=O)N[C@@H](Cc4ccc(O)cc4)C(=O)N[C@@H](CC(C)C)C(=O)N[C@@H](CC(N)=O)C(=O)N[C@@H](Cc4c[nH]c5ccccc45)C(=O)N[C@H](C(=O)N[C@H](C(=O)N[C@@H](CCCNC(=N)N)C(=O)N[C@@H](CCC(N)=O)C(=O)N(C)[C@@H](CCCNC(=N)N)C(=O)N[C@@H](Cc4ccc(O)cc4)C(N)=O)[C@@H](C)O)C(C)C)c(=O)c3c2)CC1 [Example 18] | 0.012 | > 5000 | 0.18 | > 5000 | 1190 |  |  |  |  |  | 
